Results from the NIST ThermoML archive (doi:10.1007/s10765-008-0390-4).
Numbers after ± are expanded uncertainties.

Columns and labels:
[1] = 101 kPa, Liquid
[2] = xn = mol fraction of the nth substance listed; details: 101 kPa, Liquid, x1 = 1

Row | SMILES | mass density ([1]; 288.15 K) [kg/m3] | mass density ([1]; 293.15 K) [kg/m3] | mass density ([1]; 298.15 K) [kg/m3] | mass density ([1]; 303.15 K) [kg/m3] | mass density ([1]; 308.15 K) [kg/m3] | mass density ([1]; 313.15 K) [kg/m3] | mass density ([2]; 288.15 K) [kg/m3] | mass density ([2]; 293.15 K) [kg/m3] | mass density ([2]; 298.15 K) [kg/m3] | mass density ([2]; 303.15 K) [kg/m3] | mass density ([2]; 308.15 K) [kg/m3] | mass density ([2]; 313.15 K) [kg/m3]
1 | c1ccccc1 [benzene] | 884.246 ± 0.15 | 878.918 ± 0.16 | 873.582 ± 0.16 | 868.233 ± 0.17 | 862.871 ± 0.17 | 857.498 ± 0.17 |  |  |  |  |  | 
2 | CCCCO [butan-1-ol] | 813.373 ± 0.24 | 809.573 ± 0.24 | 805.762 ± 0.25 | 801.923 ± 0.25 | 798.053 ± 0.25 | 794.147 ± 0.25 |  |  |  |  |  | 
3 | CCCCO [butan-1-ol] + ClC(Cl)Cl |  |  |  |  |  |  | 813.373 ± 0.24 | 809.573 ± 0.24 | 805.762 ± 0.25 | 801.923 ± 0.25 | 798.053 ± 0.25 | 794.147 ± 0.25
4 | CCCCO [butan-1-ol] + c1ccccc1 |  |  |  |  |  |  | 813.373 ± 0.24 | 809.573 ± 0.24 | 805.762 ± 0.25 | 801.923 ± 0.25 | 798.053 ± 0.25 | 794.147 ± 0.25
5 | ClC(Cl)Cl [trichloromethane] | 1498.08 ± 0.47 | 1488.64 ± 0.46 | 1479.15 ± 0.45 | 1469.61 ± 0.45 | 1460.03 ± 0.44 | 1450.41 ± 0.43 |  |  |  |  |  | 
